# According to patent publication US10105403B2, “Methods of treating iron deficiency to prevent iron-deficiency anemia by administration of Lactobacillus plantarum” (Probi AB, priority 2005, dated 2018):
# System: Caco-2 cells
# Test: Cellular 55Fe uptake and transfer across Caco-2 monolayers with bacterial suspensions
# Type: cell-based
# Protocol: Caco-2 cells were obtained from the American Type Culture Collection (Rockville, Md.) at passage 17 and used for experiments at passages 20-35. Stock cultures were maintained in Dulbecco's modified […] medium (DMEM) supplemented with 20% (v/v) fetal calf serum (FSC), […] penicillin G, and 100 mg/L streptomycin at 37° C. in a huminified atmosphere of 95% air-5% CO2. The growth medium was changed every second to third day. Cells were split at ˜80% confluence using 0.5 g/L trypsin with 0.5 mmol/L EDTA in Dulbecco's phosphate buffered saline (PBS). […]
# Lactobacillus plantarum 299v (DSM9843), (5), Lactobacillus plantarum 299, (1), Lactobacillus plantarum Heal 9 (DSM 15312), (2), Lactobacillus plantarum Heal 19 (DSM15313), (4), Lactobacillus plantarum 299v mutant (AMJ1277), (3) and Lactobacillus reuteri, (6) were cultured in MRS broth at a rotary shaker (37° C., 200 rpm). […] The volume of cell culture corresponding to a certain cell-number was calculated from a predetermined standard curve. […]
# Fresh supplemented DMEM was provided to the cells 1 day prior to the uptake and transfer assays. […] After 2 h incubation, the cells were washed four times with ice-cold wash buffer (150 mmol/L NaCl, 10 mmol/L HEPES, 1 mmol/L EDTA, pH7) and homogenized in 0.5M NaOH. ^55Fe transferred to the basolateral chamber or associated with the Caco-2 lysates was measured by liquid scintillation counting. […]
substance,measurement,setting,value
Lactobacillus reuteri,Transport %,"FeCl3 10 μmol/l in HBSS/HEPES, 55Fe traced, 2 h incubation, 6.7×10^7 cells/ml (Lactobacillus reuteri 3.35×10^7 cells/ml), control without bacteria 0.06",0.11%
same,Effect on Fe transport (in words),"FeCl3 10 μmol/l, Caco-2 monolayers, compared to neat Fe solution","an increase of the transport is seen, but not comparable with the different Lactobacillus plantarum strains"
